This note sets out measurements from US9580390B2, “Indazole compounds as kinase inhibitors and method of treating cancer with same” (University Health Network, priority 2011, dated 2017).

The target of one experiment is T1, human TTK (Homo sapiens, UniProt P33981).
T1 construct: amino terminal GST fusion of full length human TTK; purchased Invitrogen
T1 sequence (P33981 1-857): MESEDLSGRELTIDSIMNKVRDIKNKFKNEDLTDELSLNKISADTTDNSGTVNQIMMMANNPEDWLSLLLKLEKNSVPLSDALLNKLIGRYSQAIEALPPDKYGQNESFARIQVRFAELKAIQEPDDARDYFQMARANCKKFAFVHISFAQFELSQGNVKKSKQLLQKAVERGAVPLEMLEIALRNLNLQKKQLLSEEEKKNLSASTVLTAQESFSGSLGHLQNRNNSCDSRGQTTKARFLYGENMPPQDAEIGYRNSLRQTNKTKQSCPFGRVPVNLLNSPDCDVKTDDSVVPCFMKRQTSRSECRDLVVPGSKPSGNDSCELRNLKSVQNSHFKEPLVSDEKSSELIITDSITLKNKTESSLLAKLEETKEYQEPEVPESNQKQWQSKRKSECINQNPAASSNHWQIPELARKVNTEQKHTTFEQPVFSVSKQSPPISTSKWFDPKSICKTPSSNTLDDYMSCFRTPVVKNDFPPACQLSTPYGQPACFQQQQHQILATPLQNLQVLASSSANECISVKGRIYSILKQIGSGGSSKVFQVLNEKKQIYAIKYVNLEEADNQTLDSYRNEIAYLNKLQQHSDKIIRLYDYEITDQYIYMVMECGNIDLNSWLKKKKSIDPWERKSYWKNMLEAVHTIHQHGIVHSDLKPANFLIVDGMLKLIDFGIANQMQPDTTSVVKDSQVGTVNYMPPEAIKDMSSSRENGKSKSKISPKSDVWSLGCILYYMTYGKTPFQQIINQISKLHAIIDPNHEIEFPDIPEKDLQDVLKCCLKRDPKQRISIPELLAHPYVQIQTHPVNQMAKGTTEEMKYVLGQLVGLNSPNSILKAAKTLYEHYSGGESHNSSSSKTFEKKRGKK
The experiment can be described thus: TTK inhibition assay (indirect ELISA). The conditions noted are these: read-out: TTK IC50 Range. The format is biochemical.

For experiment [1], the system named is colon cancer cells (HCT116). The experiment can be described thus: Cancer cell line growth inhibition (SRB assay). The format is cell-based. The conditions noted are these: Homo sapiens, HCT-116; HCT116 colon cancer cells, SRB assay; read-out: Cancer Cell Line GI50 Range HCT116. A general note: The SRB assay estimates cell density from bound dye.

A value given as a limit tells only on which side of the number the result lay.

As a reminder, the IC50 is the concentration at which inhibition is half-maximal. A word on the GI50: it is the concentration at which growth is held to half of that of the control. As to `Cc1cc(-c2n[nH]c3ccc(NC(=O)C(c4ccsc4)N4CCCC4)cc23)ccc1N1CCOCC1` (stereo not shown) [Example A59, N-(3-(3-methyl-4-morpholinophenyl)-1H-indazol-5-yl)-2-(pyrrolidin-1-yl)-2-(thiophen-3-yl)acetamide], at human TTK, the IC50 fell in the range of 100 to 500 nM. Further, the GI50 in experiment [1] was more than 500 nM. For `O=C(Nc1ccc2[nH]nc(-c3ccc(CN4CCOCC4)cc3)c2c1)C1CCCc2ccccc21` (stereo not shown) [Example A23, N-(3-(4-(morpholinomethyl)phenyl)-1H-indazol-5-yl)-1,2,3,4-tetrahydronaphthalene-1-carboxamide], in that order: 100 to 500 nM and more than 500 nM. The corresponding values for `CN1CCC(Oc2ccc(-c3n[nH]c4ccc(NC(=O)Nc5ccccc5F)cc34)cc2)CC1` [Example A56, 1-(2-fluorophenyl)-3-(3-(4-((1-methylpiperidin-4-yl)oxy)phenyl)-1H-indazol-5-yl)urea] are 100 to 500 nM and more than 500 nM.

On to `CN1CCN(C2(CNC(=O)c3ccc4[nH]nc(-c5ccc(N6CCOCC6)cc5)c4c3)CCCCC2)CC1` [Example A448, N-((1-(4-methylpiperazin-1-yl)cyclohexyl)methyl)-3-(4-morpholinophenyl)-1H-indazole-5-carboxamide], for which the IC50 on human TTK is less than 100 nM. The GI50 in experiment [1] is 100 to 500 nM. `CN(C)C1(CNC(=O)c2ccc3[nH]nc(-c4ccc(N5CCOCC5)cc4)c3c2)CCCCC1` [Example A450, N-((1-(dimethylamino)cyclohexyl)methyl)-3-(4-morpholinophenyl)-1H-indazole-5-carboxamide]: at human TTK, the IC50 was more than 500 nM. Further, the GI50 in experiment [1] is more than 500 nM. Turning to `O=C(NC(c1ccccc1)C1CC1)c1ccc2[nH]nc(-c3cccc(N4CCOCC4)c3)c2c1` (stereo not shown) [Example A61, N-(cyclopropyl(phenyl)methyl)-3-(3-morpholinophenyl)-1H-indazole-5-carboxamide], the IC50 on human TTK is 100 to 500 nM. For the same compound, the GI50 in experiment [1] was more than 500 nM. On to `O=C(NCC1(N2CCOCC2)CCCOC1)c1ccc2[nH]nc(-c3ccc(N4CCOCC4)cc3)c2c1` (stereo not shown) [Example A515, 3-(4-morpholinophenyl)-N-((3-morpholinotetrahydro-2H-pyran-3-yl)methyl)-1H-indazole-5-carboxamide], for which the IC50 on human TTK was less than 100 nM. Consider `O=C(Nc1ccc2[nH]nc(-c3ccc(N4CCOCC4)cc3)c2c1)Nc1ccccc1Cl` [Example A66, 1-(2-chlorophenyl)-3-(3-(4-morpholinophenyl)-1H-indazol-5-yl)urea], for which, on human TTK, the IC50 is more than 500 nM. Besides, the GI50 in experiment [1] was more than 500 nM. For `CC(C)[C@H](NC(=O)c1ccc2[nH]nc(-c3ccc(N4CC(N5CCOCC5)C4)cc3)c2c1)c1ncccc1F` [Example A522, (S)-N-(1-(3-fluoropyridin-2-yl)-2-methylpropyl)-3-(4-(3-morpholinoazetidin-1-yl)phenyl)-1H-indazole-5-carboxamide], the IC50 at human TTK was less than 100 nM. Consider `O=C(NCC1(N2CCOCC2)CCCOC1)c1ccc2[nH]nc(-c3ccc(N4[C@@H]5CC[C@H]4C[C@H](O)C5)cc3)c2c1` (stereo partly drawn) [Example A516, 3-(4-((1R,3S,5S)-3-hydroxy-8-azabicyclo[3.2.1]octan-8-yl)phenyl)-N-((3-morpholinotetrahydro-2H-pyran-3-yl)methyl)-1H-indazole-5-carboxamide], for which the half-inhibitory concentration (IC50) at human TTK is less than 100 nM. For the compound `O=C(Nc1ccc2[nH]nc(-c3ccc(N4CCOCC4)nc3)c2c1)C(c1ccsc1)N1CCCC1` (stereo not shown) [Example A52, N-(3-(6-morpholinopyridin-3-yl)-1H-indazol-5-yl)-2-(pyrrolidin-1-yl)-2-(thiophen-3-yl)acetamide], the IC50 at human TTK was less than 100 nM. Besides, in experiment [1], the GI50 was in the range of 100 to 500 nM. With `C[C@@H]1CN(C2(CNC(=O)c3ccc4[nH]nc(-c5ccc(N6CCOCC6)cc5)c4c3)CCCCC2)C[C@H](C)O1` [Example A451, N((1-((2S,6R)-2,6-dimethylmorpholino)cyclohexyl)methyl)-3-(4-morpholinophenyl)-1H-indazole-5-carboxamide], at human TTK, the IC50 lay in the range of 100 to 500 nM. Besides, in experiment [1], the GI50 was more than 500 nM.

As to `C[C@@H]1CN(C2(CNC(=O)c3ccc4[nH]nc(-c5ccc(OC6CCN(C)CC6)cc5)c4c3)CCCCC2)C[C@H](C)O1` [Example A452, N-((1-((2S,6R)-2,6-dimethylmorpholino)cyclohexyl)methyl)-3-(4-((1-methylpiperidin-4-yl)oxy)phenyl)-1H-indazole-5-carboxamide], the IC50 at human TTK was less than 100 nM. Also, the GI50 in experiment [1] is more than 500 nM.

On to `CC(C)C[C@H](NC(=O)c1ccc2[nH]nc(-c3ccc(N4C5CCC4CC(O)C5)cc3)c2c1)c1ccccc1F` (stereo partly drawn) [Example A518, N-((S)-1-(2-fluorophenyl)-3-methylbulyl)-3-(4-((1R,3S,5S)-3-hydroxy-8-azabicyclo[3.2.1]octan-8-yl)phenyl)-1H-indazole-5-carboxamide], for which, on human TTK, the IC50 was less than 100 nM. As to `O=C(NC(c1ccccc1)C1CC1)c1ccc2[nH]nc(-c3ccc(N4CCOCC4)nc3)c2c1` (stereo not shown) [Example A54, N-(cyclopropyl(phenyl)methyl)-3-(6-morpholinopyridin-3-yl)-1H-indazole-5-carboxamide], the IC50 at human TTK is less than 100 nM. The GI50 in experiment [1] is more than 500 nM. Consider `CC(C)C[C@H](NC(=O)c1ccc2[nH]nc(-c3ccc(N4CC(N5CCOCC5)C4)cc3)c2c1)c1ccccc1` [Example A521, (S)-N-(3-methyl-1-phenylbutyl)-3-(4-(3-morpholinoazetidin-1-yl)phenyl)-1H-indazole-5-carboxamide], for which the concentration for half-maximal inhibition (IC50) on human TTK is less than 100 nM. Still for that read-out and setting: for `O=C(NCC1(N2CCC(F)CC2)CCCCC1)c1ccc2[nH]nc(-c3ccc(N4CCOCC4)cc3)c2c1` [Example A456, N-((1-(4-fluoropiperidin-1-yl)cyclohexyl)methyl)-3-(4-morpholinophenyl)-1H-indazole-5-carboxamide] the value was 100 to 500 nM. Consider `CN1CCN(c2ccc(-c3n[nH]c4ccc(NC(=O)C(c5ccsc5)N5CCCC5)cc34)cc2)C(=O)C1` (stereo not shown) [Example A94, N-(3-(4-(4-Methyl-2-oxopiperazin-1-yl)phenyl)-1H-indazol-5-yl)-2-(pyrrolidin-1-yl)-2-(thiophen-3-yl)acetamide], for which, on human TTK, the IC50 was more than 500 nM. For the compound `Cc1cc(-c2n[nH]c3ccc(C(=O)NC(c4ccccc4)C4CC4)cc23)ccc1N1CCOCC1` (stereo not shown) [Example A64, N-(cyclopropyl(phenyl)methyl)-3-(3-methyl-4-morpholinophenyl)-1H-indazole-5-carboxamide], the 50% inhibitory concentration (IC50) on human TTK was 100 to 500 nM. Besides, in experiment [1], the GI50 is more than 500 nM. The corresponding values for `O=C(NCC1(N2CCCCC2)CCCCC1)c1ccc2[nH]nc(-c3ccc(N4CCOCC4)cc3)c2c1` [Example A446, 3-(4-morpholinophenyl)-N-((1-(piperidin-1-yl)cyclohexyl)methyl)-1H-indazole-5-carboxamide] are 100 to 500 nM and 100 to 500 nM. As to `O=C(NCC1(N2CCOCC2)CCCC1)c1ccc2[nH]nc(-c3ccc(OC4CCOCC4)cc3)c2c1` [Example A477, N-((1-morpholinocyclopentyl)methyl)-3-(4-((tetrahydro-2H-pyran-4-yl)oxy)phenyl)-1H-indazole-5-carboxamide], at human TTK, the IC50 was 100 to 500 nM.

As to `O=C(NC(c1ccccc1)C1CC1)c1ccc2[nH]nc(-c3ccc(N4CCOCC4)c(F)c3)c2c1` (stereo not shown) [Example A65, N-(cyclopropyl(phenyl)methyl)-3-(3-fluoro-4-morpholinophenyl)-1H-indazole-5-carboxamide], the IC50 at human TTK fell in the range of 100 to 500 nM. Also, the GI50 in experiment [1] is more than 500 nM.

Turning to `CC(C)(C)C[C@H](NC(=O)c1ccc2[nH]nc(-c3ccc(N4CC(N5CCOCC5)C4)cc3)c2c1)c1ccccc1` [Example A520, (S)-N-(3,3-dimethyl-1-phenylbutyl)-3-(4-(3-morpholinoazetidin-1-yl)phenyl)-1H-indazole-5-carboxamide], at human TTK, the IC50 is less than 100 nM. Same read-out and setting: for `C[C@@H]1C[C@H](Oc2ccc(-c3n[nH]c4ccc(C(=O)NCC5(N6CCOCC6)CCCC5)cc34)cc2)C[C@H](C)O1` [Example A430, (4-(((2R,4R,6S)-2,6-dimethyltetrahydro-2H-pyran-4-yl)oxy)phenyl)-N-((1-morpholinocyclopentyl)methyl)-1H-indazole-5-carboxamide] the value was 100 to 500 nM; for `CCN(C(=O)Nc1ccc2[nH]nc(-c3ccc(N4CCOCC4)cc3)c2c1)c1ccccc1` [Example A72, 1-ethyl-3-(3-(4-morpholinophenyl)-1H-indazol-5-yl)-1-phenylurea], more than 500 nM; for `CN1CCC(Oc2ccc(-c3n[nH]c4ccc(C(=O)NCC5(N6CCOCC6)CCC5)cc34)cc2)CC1` [Example A479, 3-(4-((1-methylpiperidin-4-yl)oxy)phenyl)-N-((1-morpholinocyclobutyl)methyl)-1H-indazole-5-carboxamide], 100 to 500 nM.
